Source: patent US20230271980A1, “PREPARATION AND APPLICATION OF TRICYCLIC PYRIMIDINONE COMPOUND AND ITS COMPOSITION” (NEUSCO BIOTECH LIMITED, priority 2020, published 2023)

Assays:
[1] = target: T1, Recombinant human Lp-PLA2 (Homo sapiens, UniProt Q13093); assay: Recombinant human Lp-PLA2 (rhLp-PLA2) assay (PED6 assay); format: biochemical; conditions: PED6 substrate; recombinant human Lp-PLA2 enzyme at 4 nM or 110 pM; 30 min pre-incubation; fluorescence ex 480/em 540; read-out: rhLp-PLA2 (pIC50) (converted)
T1 sequence (Q13093 22-441): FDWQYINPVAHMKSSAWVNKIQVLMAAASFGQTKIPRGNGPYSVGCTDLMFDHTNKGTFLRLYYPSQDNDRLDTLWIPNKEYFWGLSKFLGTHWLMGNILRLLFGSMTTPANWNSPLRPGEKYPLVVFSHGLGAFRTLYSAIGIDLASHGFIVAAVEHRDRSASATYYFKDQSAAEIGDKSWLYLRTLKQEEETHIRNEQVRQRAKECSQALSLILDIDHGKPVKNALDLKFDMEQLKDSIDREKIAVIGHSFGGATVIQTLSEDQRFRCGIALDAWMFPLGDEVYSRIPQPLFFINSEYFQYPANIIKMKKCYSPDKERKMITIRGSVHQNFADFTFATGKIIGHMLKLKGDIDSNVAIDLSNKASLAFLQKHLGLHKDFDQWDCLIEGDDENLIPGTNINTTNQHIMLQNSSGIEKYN
From the text: (1) Recombinant Human Lp-PLA2 (rhLp-PLA2) Assay (Also Known as PED6 Assay)
PED6 is a fluorescently labeled phospholipid that can be purchased directly from Invitogene or Molecular Probes. There is a fluorescence-quenching p-nitrophenyl group on the Sn3 position, and a Bodipy fluorescein (FL) group on the sn2 position. Once it is cleaved by the Lp-PLA2 enzyme, the FL group is released, resulting in enhanced fluorescence.
Assay method: The compound to be tested (as shown in Table 1) was mixed with DMSO solution at a volume ratio of 1:3, diluted to prepare a source plate of a 384-well microplate. Then 0.01 μl of the compound was transferred via an ECHO liquid dispenser from the source plate to a 384-well Greiner 784076 plate, and 5 microliters of a buffer composed of 50 mM HEPES, pH7.4, 150 mM NaCl, 1 mM CHAPS (the buffer solution contains Recombinant human Lp-PLA2 enzyme at a concentration of 4 nM or 110 pM) was added to each well on the plate. The plate was centrifuged at 500 rpm for 10 seconds. After 30 minutes of pre-incubation, 5 microliters of the above buffer solution was added to a 384-well Greiner784076 plate, and the plate was centrifuged at 500 rpm for 10 seconds.

[2] = target: T2, Lp-PLA2 enzyme in human plasma (Homo sapiens, UniProt Q13093); assay: Human plasma Lp-PLA2 assay (Thio-PAF assay); format: biochemical; conditions: mixed human plasma; 2-thio-PAF substrate with CPM; 30 min pre-incubation; fluorescence ex 380/em 485; read-out: Thio-PAF (pIC50) (converted)
T2 construct: from tissue; host or cells: pooled (mixed) human plasma
T2 sequence (Q13093 22-441): T1 sequence (Q13093 22-441)
Experimental: (2) Human Plasma Lp-PLA2 Assay (Also Known as Thio-PAF Assay)
The human plasma assay was conducted using the sulphatide analog of PAF (phosphatidylcholine), which is hydrolyzed to produce phospholipids containing free sulfhydryl groups, subjected to Michael addition with CPM to generate fluorescence-enhancing maleimide.
Continuous quantitative analysis of thiol could be conducted by detecting the fluorescence intensity. This assay can be used to detect the inhibitory activity of the Lp-PLA2 inhibitor on the Lp-PLA2 enzyme in human plasma.
Assay Method: The compound to be tested (as shown in Table 2) was mixed with a DMSO solution in a volume ratio of (1:3), and diluted to prepare a source plate of a 384-well microplate. Then 0.01 μl of the compound was transferred via an ECHO liquid dispenser from the source plate to a 384-well Greiner 784076 low-volume plate, and 8 μl of pre-aliquoted and frozen mixed human plasma was added. The plate was centrifuged at 500 rpm for 10 seconds. After a 30 min pre-incubation, 2 μl of a substrate solution, and containing 2.5 mM 2-thio-PAF (a solution in ethanol), 32 μM CPM (a solution in DMSO) and a buffer of 3.2 mM N-ethylmaleimide (NEM) (a buffer solution consisting of 50 mM HEPES, pH7.4, 150 mM NaCl, 1 mM CHAPS) was added by a BRAVO liquid handling station to a 384-well Greiner 784076 low-volume plate. After 2 min, the reaction was quenched with 5 μl of 5% trifluoroacetic acid. After the plate was incubated at room temperature for 40 min in a dark place, the fluorescence intensity was read at ex 380/em 485 with an Envision microplate reader, and the XL fitting model in Excel was used to perform the curve analysis and QC analysis to calculate pIC50.

IC50 [1] [nM]	IC50 [2] [nM]	Structure (SMILES)
15.8	316	O=c1nc(OCc2cc(F)c(F)cc2F)c2c3n1CCN3CCO2 [Compound 1]
10	158	O=c1nc(OCc2cccc(F)c2F)c2c3n1CCN3CCO2 [Compound 2]
3.16	50.1	O=c1nc(OCc2cc(F)c(F)c(F)c2)c2c3n1CCN3CCO2 [Compound 3]
0.126	12.6	O=c1nc(OCc2cc(F)c(Oc3ccnc(C(F)(F)F)c3)c(F)c2)c2c3n1CCN3CCO2 [Compound 4]
0.2	20	O=c1nc(OCc2cc(F)c(Oc3ccc(C(F)(F)F)nc3)c(F)c2)c2c3n1CCN3CCO2 [Compound 5]
0.158	15.8	Cc1cc(Oc2c(F)cc(COc3nc(=O)n4c5c3OCCN5CC4)cc2F)ccn1 [Compound 6]
0.251	20	Cc1ccc(Oc2c(F)cc(COc3nc(=O)n4c5c3OCCN5CC4)cc2F)cn1 [Compound 7]
1	39.8	Cc1ncc(Oc2c(F)cc(COc3nc(=O)n4c5c3OCCN5CC4)cc2F)cn1 [Compound 8]
0.158	10	O=c1nc(OCc2cc(F)c(Oc3ccc(C(F)(F)F)cc3)c(F)c2)c2c3n1CCN3CCO2 [Compound 9]
0.2	15.8	O=c1nc(OCc2cc(F)c(Oc3cccc(OC(F)(F)F)c3)c(F)c2)c2c3n1CCN3CCO2 [Compound 10]
0.1	10	O=c1nc(OCc2cc(F)c(Oc3ccc(C(F)(F)F)c(Cl)c3)c(F)c2)c2c3n1CCN3CCO2 [Compound 11]
0.0794	15.8	O=c1nc(OCc2cc(F)c(Oc3ccc(OC(F)(F)F)c(Cl)c3)c(F)c2)c2c3n1CCN3CCO2 [Compound 12]
0.158	12.6	O=c1nc(OCc2cc(F)c(Oc3ccc(Cl)c(C(F)(F)F)c3)c(F)c2)c2c3n1CCN3CCO2 [Compound 13]
0.2	15.8	Cc1cc(Oc2c(F)cc(COc3nc(=O)n4c5c3OCCN5CC4)cc2F)ccc1Cl [Compound 14]
0.0631	7.94	O=c1nc(OCc2cc(F)c(Oc3ccnc(C(F)(F)F)c3)c(F)c2)c2c3n1CCCN3CCO2 [Compound 15]
0.0794	10	O=c1nc(OCc2cc(F)c(Oc3ccc(C(F)(F)F)nc3)c(F)c2)c2c3n1CCCN3CCO2 [Compound 16]
0.0501	7.94	Cc1ccc(Oc2c(F)cc(COc3nc(=O)n4c5c3OCCN5CCC4)cc2F)cn1 [Compound 17]
10	126	O=c1nc(OCc2cccc(F)c2F)c2c3n1CCCN3CCO2 [Compound 18]
3.98	63.1	O=c1nc(OCc2cc(F)c(F)c(F)c2)c2c3n1CCCN3CCO2 [Compound 19]
